Assay results as given in ChEMBL document CHEMBL3763124, “N-Benzylbenzamides: A Novel Merged Scaffold for Orally Available Dual Soluble Epoxide Hydrolase/Peroxisome Proliferator-Activated Receptor γ Modulators” (J Med Chem, 2016).
In brackets after ≈: the same amount, converted by molar mass. Activity calls are given as the source filed them. No cut-off for these calls is given here.

How the values were obtained:
[1] = molecular target: T1, Peroxisome proliferator-activated receptor alpha (Homo sapiens, UniProt Q07869)
T1 sequence (Q07869 whole entry): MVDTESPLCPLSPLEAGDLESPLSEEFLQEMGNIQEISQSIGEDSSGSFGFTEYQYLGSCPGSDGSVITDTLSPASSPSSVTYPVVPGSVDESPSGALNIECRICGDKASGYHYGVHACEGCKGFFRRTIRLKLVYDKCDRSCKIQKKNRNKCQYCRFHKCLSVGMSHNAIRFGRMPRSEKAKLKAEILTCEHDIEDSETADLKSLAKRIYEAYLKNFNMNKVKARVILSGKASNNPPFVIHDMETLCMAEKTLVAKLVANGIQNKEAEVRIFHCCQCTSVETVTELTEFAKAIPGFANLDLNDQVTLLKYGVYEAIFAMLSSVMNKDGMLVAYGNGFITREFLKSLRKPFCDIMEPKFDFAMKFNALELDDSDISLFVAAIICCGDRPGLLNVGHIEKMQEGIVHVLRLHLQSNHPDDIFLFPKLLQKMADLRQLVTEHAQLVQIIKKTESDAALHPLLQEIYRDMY
Description: (§1) Transactivation of human PPARalpha expressed in African green monkey COS7 cells incubated overnight by dual-glo luciferase reporter gene assay

[2] = molecular target: T2, Peroxisome proliferator-activated receptor delta (Homo sapiens, UniProt Q03181); experiment: Transactivation of human PPARdelta expressed in African green monkey COS7 cells incubated overnight by dual-glo luciferase reporter gene assay; assay type: cell-based; details: cos-7
T2 sequence (Q03181 whole entry): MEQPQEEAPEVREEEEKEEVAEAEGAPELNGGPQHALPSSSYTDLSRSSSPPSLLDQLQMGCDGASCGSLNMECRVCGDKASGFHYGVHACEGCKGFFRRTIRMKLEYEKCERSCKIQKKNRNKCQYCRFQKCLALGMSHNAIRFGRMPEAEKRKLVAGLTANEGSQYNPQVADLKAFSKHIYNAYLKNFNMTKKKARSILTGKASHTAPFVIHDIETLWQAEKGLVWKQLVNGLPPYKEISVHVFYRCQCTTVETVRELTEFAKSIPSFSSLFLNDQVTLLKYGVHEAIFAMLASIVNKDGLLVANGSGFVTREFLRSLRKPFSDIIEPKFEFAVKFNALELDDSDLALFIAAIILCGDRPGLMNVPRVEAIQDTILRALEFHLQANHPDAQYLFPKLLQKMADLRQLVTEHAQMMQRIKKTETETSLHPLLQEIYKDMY

[3] = molecular target: T3, Peroxisome proliferator-activated receptor alpha (Homo sapiens) (UniProt Q07869); experiment: Transactivation of human PPARalpha expressed in African green monkey COS7 cells incubated overnight by dual-glo luciferase reporter assay relative to GW7647; assay type: cell-based; details: COS-7
T3 sequence (whole entry): T1 sequence (Q07869 whole entry)

[4] = Solubility of the compound in water by microplate reader analysis; assay type: physicochemical
[5] = molecular target: T4, Peroxisome proliferator-activated receptor gamma (Homo sapiens) (UniProt P37231); experiment: Transactivation of PPARgamma in human primary preadipocytes assessed as adipocyte differentiation by Oil Red O staining-based assay; assay type: cell-based
T4 sequence (whole entry): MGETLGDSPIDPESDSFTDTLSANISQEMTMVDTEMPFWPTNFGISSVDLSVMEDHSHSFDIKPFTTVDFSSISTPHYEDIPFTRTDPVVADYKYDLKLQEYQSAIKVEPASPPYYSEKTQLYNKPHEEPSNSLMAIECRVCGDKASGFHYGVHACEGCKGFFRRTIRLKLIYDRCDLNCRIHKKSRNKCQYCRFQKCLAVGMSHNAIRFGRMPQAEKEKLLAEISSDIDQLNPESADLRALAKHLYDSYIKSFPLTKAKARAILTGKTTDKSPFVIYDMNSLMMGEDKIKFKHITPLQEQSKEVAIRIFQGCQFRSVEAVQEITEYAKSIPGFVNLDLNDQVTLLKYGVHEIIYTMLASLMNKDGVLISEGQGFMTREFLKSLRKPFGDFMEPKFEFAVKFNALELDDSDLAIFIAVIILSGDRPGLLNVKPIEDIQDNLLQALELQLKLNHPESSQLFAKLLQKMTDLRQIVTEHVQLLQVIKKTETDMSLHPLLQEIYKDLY

[6] = molecular target: T4, Peroxisome proliferator-activated receptor gamma (Homo sapiens); experiment: Transactivation of PPARgamma in human primary preadipocytes assessed as increase in […] expression at 10 uM by qPCR method; assay type: cell-based
[7] = molecular target: T5, Peroxisome proliferator-activated receptor gamma (Mus musculus) (UniProt P37238); experiment: Transactivation of PPARgamma in mouse 3T3L1 cells assessed as adipocyte differentiation by Oil Red O staining-based assay; assay type: cell-based; details: 3T3-L1
T5 sequence (whole entry): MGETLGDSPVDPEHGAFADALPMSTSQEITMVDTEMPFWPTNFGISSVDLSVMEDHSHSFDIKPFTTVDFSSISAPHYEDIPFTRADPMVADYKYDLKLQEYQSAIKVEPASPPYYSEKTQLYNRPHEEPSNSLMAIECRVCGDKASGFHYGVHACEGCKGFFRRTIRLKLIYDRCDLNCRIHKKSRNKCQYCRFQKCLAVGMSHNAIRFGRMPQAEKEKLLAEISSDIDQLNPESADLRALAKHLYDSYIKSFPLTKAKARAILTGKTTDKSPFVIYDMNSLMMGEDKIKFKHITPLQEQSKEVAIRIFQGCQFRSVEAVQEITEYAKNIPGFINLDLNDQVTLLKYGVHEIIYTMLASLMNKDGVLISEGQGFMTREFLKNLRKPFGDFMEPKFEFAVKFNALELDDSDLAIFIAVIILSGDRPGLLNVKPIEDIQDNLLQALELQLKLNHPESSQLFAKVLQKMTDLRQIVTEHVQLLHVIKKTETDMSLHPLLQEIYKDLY

[8] = molecular target: T4, Peroxisome proliferator-activated receptor gamma (Homo sapiens); experiment: Transactivation of PPARgamma in human primary preadipocytes assessed as increase in FABP4 expression at 10 uM by qPCR method; assay type: cell-based
[9] = molecular target: T5, Peroxisome proliferator-activated receptor gamma (Mus musculus); experiment: Transactivation of PPARgamma in mouse 3T3L1 cells assessed as increase in LPL expression by qPCR method; assay type: cell-based; details: 3T3-L1
[10] = molecular target: T1, Peroxisome proliferator-activated receptor alpha; details: cos-7
Description: as §1

[11] = molecular target: T4, Peroxisome proliferator-activated receptor gamma (Homo sapiens); experiment: Transactivation of PPARgamma in human primary preadipocytes assessed as increase in LPL expression at 10 uM by qPCR method; assay type: cell-based
Mus musculus = experiment: Drug level in RjOrl:Swiss (CD-1) mouse plasma treated with Ethyl 2-Ethyl 3-[4-(N-((2-trifluoromethyl)benzyl)benzamide)]propanoate at 30 mg/kg, po administered as single dose; assay type: ADME, organism-based; details: in vivo
HepG2 = experiment: Cytotoxicity against human HepG2 cells assessed as cell viability up to 30 uM after 48 hrs by WST-1 assay; assay type: cell-based; details: hepg2, 48 h
[12] = molecular target: T5, Peroxisome proliferator-activated receptor gamma (Mus musculus); experiment: Transactivation of PPARgamma in mouse 3T3L1 cells assessed as increase in […] expression by qPCR method; assay type: cell-based; details: 3T3-L1
[13] = molecular target: T5, Peroxisome proliferator-activated receptor gamma (Mus musculus); experiment: Transactivation of PPARgamma in mouse 3T3L1 cells assessed as increase in adiponectin expression by qPCR method; assay type: cell-based; details: 3T3-L1
[14] = Apparent oral clearance in RjOrl:Swiss (CD-1) mouse plasma at 30 mg/kg; assay type: ADME, organism-based
[15] = molecular target: T5, Peroxisome proliferator-activated receptor gamma (Mus musculus); experiment: Transactivation of PPARgamma in mouse 3T3L1 cells assessed as increase in FABP4 expression by qPCR method; assay type: cell-based; details: 3T3-L1
[16] = molecular target: T4, Peroxisome proliferator-activated receptor gamma (Homo sapiens); experiment: Transactivation of PPARgamma in human primary preadipocytes assessed as increase in adiponectin expression at 10 uM by qPCR method; assay type: cell-based
[17] = molecular target: T6, Peroxisome proliferator-activated receptor delta (Homo sapiens) (UniProt Q03181); experiment: Transactivation of human PPARdelta expressed in African green monkey COS7 cells at 10 uM incubated overnight by dual-glo luciferase reporter assay; assay type: cell-based; details: COS-7
T6 sequence (whole entry): T2 sequence (Q03181 whole entry)

[18] = molecular target: T7, Bifunctional epoxide hydrolase 2 (Homo sapiens, UniProt P34913); experiment: Inhibition of human recombinant sEH using PHOME as substrate preincubated for 30 mins followed by substrate addition measured for 30 mins by fluorescence-based assay
T7 sequence (P34913 whole entry): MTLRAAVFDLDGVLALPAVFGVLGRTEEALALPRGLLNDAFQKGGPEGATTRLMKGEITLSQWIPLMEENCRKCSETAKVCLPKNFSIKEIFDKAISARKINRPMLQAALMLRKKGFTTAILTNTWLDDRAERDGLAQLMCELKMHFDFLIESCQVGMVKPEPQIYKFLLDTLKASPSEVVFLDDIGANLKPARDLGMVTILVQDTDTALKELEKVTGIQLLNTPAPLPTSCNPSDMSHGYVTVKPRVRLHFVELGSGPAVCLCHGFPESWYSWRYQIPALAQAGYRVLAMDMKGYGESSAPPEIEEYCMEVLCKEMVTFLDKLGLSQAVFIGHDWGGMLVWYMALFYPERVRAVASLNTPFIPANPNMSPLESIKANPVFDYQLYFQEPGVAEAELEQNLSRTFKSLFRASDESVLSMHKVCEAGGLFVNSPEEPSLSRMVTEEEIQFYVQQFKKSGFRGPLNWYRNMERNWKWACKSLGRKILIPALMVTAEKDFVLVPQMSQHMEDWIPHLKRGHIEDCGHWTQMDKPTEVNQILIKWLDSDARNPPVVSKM

[19] = molecular target: T8, Peroxisome proliferator-activated receptor gamma (Homo sapiens, UniProt P37231); details: cos-7
T8 sequence (P37231 whole entry): T4 sequence (whole entry)
Description: Transactivation of human PPARgamma expressed in African green monkey COS7 cells incubated overnight by dual-glo luciferase reporter gene assay

[20] = molecular target: T4, Peroxisome proliferator-activated receptor gamma (Homo sapiens); experiment: Transactivation of human PPARgamma expressed in African green monkey COS7 cells at 10 uM incubated overnight by dual-glo luciferase reporter gene assay; assay type: cell-based; details: COS-7

## CCOC(=O)C(CC)Cc1ccc(C(=O)NCc2ccc(Oc3ccccc3)cc2)cc1 (stereo unspecified)
[1]
  EC50: 4 µM
[2]
  EC50: Not Active
[3]
  Emax: 110%

## CCC(Cc1ccc(C(=O)NCc2ccccc2C(F)(F)F)cc1)C(=O)O (stereo unspecified)
[4]
  solubility: 75 µM (≈ 28.5 µg/mL)
[5]
  Activity: Dose-dependent effect
[6]
  Activity: Active
[2]
  EC50: Not Active
[7]
  Activity: Dose-dependent effect
[8]
  Activity: Active
[9]
  Activity: Dose-dependent effect
[10]
  EC50: Not Active
[3]
  Emax: inactive
[11]
  Activity: Active
Mus musculus
  Drug metabolism: metabolite_detected
HepG2
  Activity: Non-toxic
[12]
  Activity: Dose-dependent effect
[13]
  Activity: Dose-dependent effect
[14]
  CL/F: 31.7 mL/min/kg
[15]
  Activity: Dose-dependent effect
[16]
  Activity: Active
[17]
  Emax: inactive

## CCC(Cc1ccc(C(=O)NCc2ccc(C(F)(F)F)cc2)cc1)C(=O)O (stereo unspecified)
[1]
  EC50: 7 µM
[2]
  EC50: Not Active
[18]
  IC50: 7.2 µM

## CCOC(=O)C(CC)Cc1ccc(C(=O)NCc2ccccc2Br)cc1 (stereo unspecified)
[19]
  EC50: Not Active
[4]
  solubility: 20 µM (≈ 8.37 µg/mL)
[2]
  EC50: Not Active
[10]
  EC50: Not Active
[3]
  Emax: inactive
[18]
  IC50: 4 µM

## O=C(O)c1ccc(-c2ccc(C(=O)NCc3ccccc3C(F)(F)F)cc2)cc1
[4]
  solubility: 3.75 µM (≈ 1.5 µg/mL)
[2]
  EC50: Not Active
[20]
  Activity: 30%
[10]
  EC50: Not Active
[3]
  Emax: inactive
[17]
  Emax: inactive

## CON(C)C(=O)C1CC1c1ccc(C(=O)NCc2ccccc2C(F)(F)F)cc1 (stereo unspecified)
[2]
  EC50: Not Active
[20]
  Activity: 30%
[10]
  EC50: Not Active
[3]
  Emax: inactive
[17]
  Emax: inactive
